The compounds below were run on HDF (normal cells) (assay: ATP level assay (CellTiter-Glo), percent of control). Details: 2 h; compound alone, 100 uM, two hour incubation, control DMSO; read-out: POC (percent of control) HDF.
Type: cell-based

Compound	activity at 100 µM [%]
Cn1cc(CNS(=O)(=O)c2ccc(Cl)cc2)c2ccccc21 [Compound 29, 4-chloro-N-[(1-methyl-1H-indol-3-yl)methyl]benzenesulfonamide]	95.8

Same assay, conditions: compound 100 uM + 2DG (about 10-20 mM), two hour incubation

Compound	POC (percent of control) HDF
Cn1cc(CNS(=O)(=O)c2ccc(Cl)cc2)c2ccccc21 [Compound 29, 4-chloro-N-[(1-methyl-1H-indol-3-yl)methyl]benzenesulfonamide]	73% of control

Same assay, conditions: compound 100 uM + rotenone (approximately 1.25 μM), two hour incubation

Compound	POC (percent of control) HDF
Cn1cc(CNS(=O)(=O)c2ccc(Cl)cc2)c2ccccc21 [Compound 29, 4-chloro-N-[(1-methyl-1H-indol-3-yl)methyl]benzenesulfonamide]	81.5% of control

These compounds were tested on T47D (breast cancer) in the same assay as above. Details: Homo sapiens, T47D, 2 h; compound alone, 100 uM, two hour incubation, control DMSO; read-out: POC (percent of control) T47D.
Type: cell-based

Compound	activity at 100 µM [%]
Cn1cc(CNS(=O)(=O)c2ccc(Cl)cc2)c2ccccc21 [Compound 29, 4-chloro-N-[(1-methyl-1H-indol-3-yl)methyl]benzenesulfonamide]	90

Same assay, conditions: compound 100 uM + 2DG (about 10-20 mM), two hour incubation

Compound	POC (percent of control) T47D
Cn1cc(CNS(=O)(=O)c2ccc(Cl)cc2)c2ccccc21 [Compound 29, 4-chloro-N-[(1-methyl-1H-indol-3-yl)methyl]benzenesulfonamide]	60.7% of control

Same assay, conditions: compound 100 uM + rotenone (approximately 1.25 μM), two hour incubation

Compound	POC (percent of control) T47D
Cn1cc(CNS(=O)(=O)c2ccc(Cl)cc2)c2ccccc21 [Compound 29, 4-chloro-N-[(1-methyl-1H-indol-3-yl)methyl]benzenesulfonamide]	77.6% of control

The compounds below were run on HeLa (cervical cancer) in the same assay as above. Details: Homo sapiens, HeLa, 2 h; compound alone, 100 uM, two hour incubation, control DMSO; read-out: POC (percent of control) HeLa.
Type: cell-based

Compound	activity at 100 µM [%]
Cn1cc(CNS(=O)(=O)c2ccc(Cl)cc2)c2ccccc21 [Compound 29, 4-chloro-N-[(1-methyl-1H-indol-3-yl)methyl]benzenesulfonamide]	80.9

Same assay, conditions: compound 100 uM + 2DG (about 10-20 mM), two hour incubation

Compound	POC (percent of control) HeLa
Cn1cc(CNS(=O)(=O)c2ccc(Cl)cc2)c2ccccc21 [Compound 29, 4-chloro-N-[(1-methyl-1H-indol-3-yl)methyl]benzenesulfonamide]	83.9% of control

Same assay, conditions: compound 100 uM + rotenone (approximately 1.25 μM), two hour incubation

Compound	POC (percent of control) HeLa
Cn1cc(CNS(=O)(=O)c2ccc(Cl)cc2)c2ccccc21 [Compound 29, 4-chloro-N-[(1-methyl-1H-indol-3-yl)methyl]benzenesulfonamide]	93.1% of control

The compounds below were run on NCI-H196 (lung cancer) in the same assay as above. Details: NCI-H196, 2 h; compound alone, 100 uM, two hour incubation, control DMSO; read-out: POC (percent of control) NCI-H196.
Type: cell-based

Compound	activity at 100 µM [%]
Cn1cc(CNS(=O)(=O)c2ccc(Cl)cc2)c2ccccc21 [Compound 29, 4-chloro-N-[(1-methyl-1H-indol-3-yl)methyl]benzenesulfonamide]	192

Same assay, conditions: compound 100 uM + 2DG (about 10-20 mM), two hour incubation

Compound	POC (percent of control) NCI-H196
Cn1cc(CNS(=O)(=O)c2ccc(Cl)cc2)c2ccccc21 [Compound 29, 4-chloro-N-[(1-methyl-1H-indol-3-yl)methyl]benzenesulfonamide]	51.3% of control

Same assay, conditions: compound 100 uM + rotenone (approximately 1.25 μM), two hour incubation

Compound	POC (percent of control) NCI-H196
Cn1cc(CNS(=O)(=O)c2ccc(Cl)cc2)c2ccccc21 [Compound 29, 4-chloro-N-[(1-methyl-1H-indol-3-yl)methyl]benzenesulfonamide]	100.3% of control

These compounds were tested on H293 (kidney cancer) in the same assay as above. Details: 2 h; compound alone, 100 uM, two hour incubation, control DMSO; read-out: POC (percent of control) H293.
Type: cell-based

Compound	activity at 100 µM [%]
Cn1cc(CNS(=O)(=O)c2ccc(Cl)cc2)c2ccccc21 [Compound 29, 4-chloro-N-[(1-methyl-1H-indol-3-yl)methyl]benzenesulfonamide]	91.2

Same assay, conditions: compound 100 uM + 2DG (about 10-20 mM), two hour incubation

Compound	POC (percent of control) H293
Cn1cc(CNS(=O)(=O)c2ccc(Cl)cc2)c2ccccc21 [Compound 29, 4-chloro-N-[(1-methyl-1H-indol-3-yl)methyl]benzenesulfonamide]	55% of control

Same assay, conditions: compound 100 uM + rotenone (approximately 1.25 μM), two hour incubation

Compound	POC (percent of control) H293
Cn1cc(CNS(=O)(=O)c2ccc(Cl)cc2)c2ccccc21 [Compound 29, 4-chloro-N-[(1-methyl-1H-indol-3-yl)methyl]benzenesulfonamide]	50.5% of control

These compounds were tested on SkBr3 (breast cancer) in the same assay as above. Details: Homo sapiens, SK-BR-3, 2 h; compound alone, 100 uM, two hour incubation, control DMSO; read-out: POC (percent of control) SkBr3.
Type: cell-based

Compound	activity at 100 µM [%]
Cn1cc(CNS(=O)(=O)c2ccc(Cl)cc2)c2ccccc21 [Compound 29, 4-chloro-N-[(1-methyl-1H-indol-3-yl)methyl]benzenesulfonamide]	102

Same assay, conditions: compound 100 uM + 2DG (about 10-20 mM), two hour incubation

Compound	POC (percent of control) SkBr3
Cn1cc(CNS(=O)(=O)c2ccc(Cl)cc2)c2ccccc21 [Compound 29, 4-chloro-N-[(1-methyl-1H-indol-3-yl)methyl]benzenesulfonamide]	72.5% of control

Same assay, conditions: compound 100 uM + rotenone (approximately 1.25 μM), two hour incubation

Compound	POC (percent of control) SkBr3
Cn1cc(CNS(=O)(=O)c2ccc(Cl)cc2)c2ccccc21 [Compound 29, 4-chloro-N-[(1-methyl-1H-indol-3-yl)methyl]benzenesulfonamide]	78.6% of control

These compounds were tested on MCF7 (breast cancer) in the same assay as above. Details: Homo sapiens, MCF7, 2 h; compound alone, 100 uM, two hour incubation, control DMSO; read-out: POC (percent of control) MCF7.
Type: cell-based

Compound	activity at 100 µM [%]
Cn1cc(CNS(=O)(=O)c2ccc(Cl)cc2)c2ccccc21 [Compound 29, 4-chloro-N-[(1-methyl-1H-indol-3-yl)methyl]benzenesulfonamide]	105

Same assay, conditions: compound 100 uM + 2DG (about 10-20 mM), two hour incubation

Compound	POC (percent of control) MCF7
Cn1cc(CNS(=O)(=O)c2ccc(Cl)cc2)c2ccccc21 [Compound 29, 4-chloro-N-[(1-methyl-1H-indol-3-yl)methyl]benzenesulfonamide]	90.9% of control

Same assay, conditions: compound 100 uM + rotenone (approximately 1.25 μM), two hour incubation

Compound	POC (percent of control) MCF7
Cn1cc(CNS(=O)(=O)c2ccc(Cl)cc2)c2ccccc21 [Compound 29, 4-chloro-N-[(1-methyl-1H-indol-3-yl)methyl]benzenesulfonamide]	98% of control

Each compound was assayed on BxPC3 (pancreatic cancer) in the same assay as above. Details: Homo sapiens, BXPC-3, 2 h; compound alone, 100 uM, two hour incubation, control DMSO; read-out: POC (percent of control) BxPC3.
Type: cell-based

Compound	activity at 100 µM [%]
Cn1cc(CNS(=O)(=O)c2ccc(Cl)cc2)c2ccccc21 [Compound 29, 4-chloro-N-[(1-methyl-1H-indol-3-yl)methyl]benzenesulfonamide]	80.8

Same assay, conditions: compound 100 uM + 2DG (about 10-20 mM), two hour incubation

Compound	POC (percent of control) BxPC3
Cn1cc(CNS(=O)(=O)c2ccc(Cl)cc2)c2ccccc21 [Compound 29, 4-chloro-N-[(1-methyl-1H-indol-3-yl)methyl]benzenesulfonamide]	51.7% of control

Same assay, conditions: compound 100 uM + rotenone (approximately 1.25 μM), two hour incubation

Compound	POC (percent of control) BxPC3
Cn1cc(CNS(=O)(=O)c2ccc(Cl)cc2)c2ccccc21 [Compound 29, 4-chloro-N-[(1-methyl-1H-indol-3-yl)methyl]benzenesulfonamide]	52.7% of control

The compounds below were run on MCF10A (non-cancerous breast) in the same assay as above. Details: Homo sapiens, MCF-10A, 2 h; compound alone, 100 uM, two hour incubation, control DMSO; read-out: POC (percent of control) MCF10A.
Type: cell-based

Compound	activity at 100 µM [%]
Cn1cc(CNS(=O)(=O)c2ccc(Cl)cc2)c2ccccc21 [Compound 29, 4-chloro-N-[(1-methyl-1H-indol-3-yl)methyl]benzenesulfonamide]	78.9

Same assay, conditions: compound 100 uM + 2DG (about 10-20 mM), two hour incubation

Compound	POC (percent of control) MCF10A
Cn1cc(CNS(=O)(=O)c2ccc(Cl)cc2)c2ccccc21 [Compound 29, 4-chloro-N-[(1-methyl-1H-indol-3-yl)methyl]benzenesulfonamide]	46.2% of control

Same assay, conditions: compound 100 uM + rotenone (approximately 1.25 μM), two hour incubation

Compound	POC (percent of control) MCF10A
Cn1cc(CNS(=O)(=O)c2ccc(Cl)cc2)c2ccccc21 [Compound 29, 4-chloro-N-[(1-methyl-1H-indol-3-yl)methyl]benzenesulfonamide]	62.7% of control

Each compound was assayed on MDA-MB (breast cancer) in the same assay as above. Details: 2 h; compound alone, 100 uM, two hour incubation, control DMSO; read-out: POC (percent of control) MDA-MB.
Type: cell-based

Compound	activity at 100 µM [%]
Cn1cc(CNS(=O)(=O)c2ccc(Cl)cc2)c2ccccc21 [Compound 29, 4-chloro-N-[(1-methyl-1H-indol-3-yl)methyl]benzenesulfonamide]	81.1

Same assay, conditions: compound 100 uM + 2DG (about 10-20 mM), two hour incubation

Compound	POC (percent of control) MDA-MB
Cn1cc(CNS(=O)(=O)c2ccc(Cl)cc2)c2ccccc21 [Compound 29, 4-chloro-N-[(1-methyl-1H-indol-3-yl)methyl]benzenesulfonamide]	64.7% of control

Same assay, conditions: compound 100 uM + rotenone (approximately 1.25 μM), two hour incubation

Compound	POC (percent of control) MDA-MB
Cn1cc(CNS(=O)(=O)c2ccc(Cl)cc2)c2ccccc21 [Compound 29, 4-chloro-N-[(1-methyl-1H-indol-3-yl)methyl]benzenesulfonamide]	69.7% of control

The compounds below were run on PC3 (prostate cancer) in the same assay as above. Details: 2 h; compound alone, 100 uM, two hour incubation, control DMSO; read-out: POC (percent of control) PC3.
Type: cell-based

Compound	activity at 100 µM [%]
Cn1cc(CNS(=O)(=O)c2ccc(Cl)cc2)c2ccccc21 [Compound 29, 4-chloro-N-[(1-methyl-1H-indol-3-yl)methyl]benzenesulfonamide]	77.8

Same assay, conditions: compound 100 uM + 2DG (about 10-20 mM), two hour incubation

Compound	POC (percent of control) PC3
Cn1cc(CNS(=O)(=O)c2ccc(Cl)cc2)c2ccccc21 [Compound 29, 4-chloro-N-[(1-methyl-1H-indol-3-yl)methyl]benzenesulfonamide]	67.5% of control

Same assay, conditions: compound 100 uM + rotenone (approximately 1.25 μM), two hour incubation

Compound	POC (percent of control) PC3
Cn1cc(CNS(=O)(=O)c2ccc(Cl)cc2)c2ccccc21 [Compound 29, 4-chloro-N-[(1-methyl-1H-indol-3-yl)methyl]benzenesulfonamide]	67% of control

Source: patent US20230266302A1, “SYNTHESIS AND USE OF N-BENZYL SULFONAMIDES” (THE UNIVERSITY OF TULSA, priority 2020, published 2023)
